Experimental data: US11958856B2, “Substituted 1,2,3,8,9,9a-hexahydro-5H-pyrrolo[1,2-a]azepin-5-ones as factor XIa inhibitors” (Janssen Pharmaceutica NV, priority 2021, dated 2024)
Values belong to the molecule of their own block, whether it stands above or below them. Peptide text beside a SMILES is read from it. * marks the point of attachment. 5FAM = O=C1OC2(c3ccc(O)cc3Oc3cc(O)ccc32)c2ccc(C(=O)*)cc21; AMC = Cc1cc(=O)oc2cc(N*)ccc12; Cbz = O=C(OCc1ccccc1)*

Tests used:
Type in all cases: biochemical
Factor XIa [1] = biological target: T1, Factor XIa (Homo sapiens, UniProt P03951); assay: Kinetic parameters of the peptide substrate with Factor XIa (substrate inhibition model); conditions: substrate of FXIa
Text: (§1) A fluorescence intensity (FLINT) based assay was used to monitor inhibition of Factor XIa. The peptide substrate, 5Fam-KLTRAETV-K5Tamra (purchased from New England Peptide) was chosen based on the FXI sequence. Conversion of zymogen FXI to its activated form, FXIa, occurs by proteolytic cleavage by […] at two sites, Arg146 and Arg180. The custom peptide used in this assay was based on the Arg146 cleavage site of FXI. The peptide substrate was designed with a fluorophore-quencher pair, where the fluorescence is quenched until FXIa cleaves the 8-mer peptide after the Arg residue.

human plasma kallikrein [2] = biological target: T2, human plasma kallikrein (Homo sapiens, UniProt P03952); assay: Kinetic parameters of the peptide substrate with kallikrein (Michaelis-Menten fit)
Text: (§2) A fluorescence intensity (FLINT) based assay was used to monitor inhibition of human plasma kallikrein. The peptide substrate, Z-Gly-Pro-Arg-AMC (Purchased from Bachem; Catalog #I-1150) was chosen based on its relatively low KM for kallikrein which enables running the assay at lower substrate concentrations to control background fluorescence.

Factor XIa [3] = biological target: T1, Factor XIa; assay: Factor XIa inhibition assay (FLINT) with fluorophore-quencher pair peptide substrate
Text: Biological Example 1: Factor XIa Inhibition Assay Utilizing a Fluorophore-Quencher Pair Peptide Substrate
as §1
The Factor XIa FLINT assay was used with the following 5Fam-KLTRAETV-K5Tamra assay buffer: 50 mM Tris, pH 7.5, 100 mM NaCl, 5 mM CaCl2, 0.1 mg/mL BSA, 0.03% CHAPS. […]
Test compound(s) were run in an 11-point, 3-fold serial dilution with a final top compound concentration of 100 nM. […] The assay was run with kinetic (KIN) reads at 5 min intervals over 30 minutes. […]
(§3) Percent inhibition (IC50) curves were generated per compound tested, and data was analyzed using a 4-parameter logistic fit using GeneData Screener. The relative fluorescence unit (RFU) values were normalized to percent inhibition using the following equation: % inhibition=((HC−LC)−(compound−LC)/(HC−LC))*100 […]

human plasma kallikrein [4] = biological target: T2, human plasma kallikrein; assay: Kallikrein inhibition assay (FLINT) with quenched AMC peptide substrate; conditions: 30 min preincubation; 50 μM Z-Gly-Pro-Arg-AMC substrate; 2 nM kallikrein; top compound concentration 1 μM
Text: Biological Example 2: Kallikrein Inhibition Assay Utilizing a Quenched AMC Peptide Substrate
as §2
The Kallikrein FLINT assay was used with the following Z-Gly-Pro-Arg-AMC assay buffer: 50 mM Tris, pH 7.5, 100 mM NaCl, 5 mM CaCl2, 0.1 mg/mL BSA, 0.03% CHAPS. Assay buffer was prepared by mixing all ingredients fresh. 2× Z-Gly-Pro-Arg-AMC peptide substrate was prepared by diluting 10 mM stock into 1× assay buffer for a 100 μM working concentration (50 μM final concentration). […]
Test compound(s) were run in an 11-point, 3-fold serial dilution with a final top compound concentration of 1 μM. […] The assay was run with kinetic (KIN) reads at 5 min intervals over 30 minutes. […]
as §3

T1 sequence (P03951 388-625 limits assumed): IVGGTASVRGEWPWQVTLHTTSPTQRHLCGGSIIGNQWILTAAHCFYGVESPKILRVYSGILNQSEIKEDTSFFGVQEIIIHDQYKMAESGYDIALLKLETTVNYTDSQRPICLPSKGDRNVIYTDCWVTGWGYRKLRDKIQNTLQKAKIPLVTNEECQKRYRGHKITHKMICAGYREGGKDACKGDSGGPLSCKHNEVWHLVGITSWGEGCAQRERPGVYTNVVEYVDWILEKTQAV
T1 sequence (P03951 19-387 partner limits assumed): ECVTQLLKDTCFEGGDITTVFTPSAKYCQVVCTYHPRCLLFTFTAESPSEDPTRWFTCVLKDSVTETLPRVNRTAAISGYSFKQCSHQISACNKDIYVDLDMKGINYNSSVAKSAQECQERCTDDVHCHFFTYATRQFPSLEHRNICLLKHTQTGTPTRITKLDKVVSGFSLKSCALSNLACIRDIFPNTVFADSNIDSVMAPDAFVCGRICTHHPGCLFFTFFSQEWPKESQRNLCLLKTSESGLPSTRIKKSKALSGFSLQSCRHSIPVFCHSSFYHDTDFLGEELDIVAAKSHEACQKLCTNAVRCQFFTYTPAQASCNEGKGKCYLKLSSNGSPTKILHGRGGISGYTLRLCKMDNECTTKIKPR
T2 sequence (P03952 391-638 limits assumed): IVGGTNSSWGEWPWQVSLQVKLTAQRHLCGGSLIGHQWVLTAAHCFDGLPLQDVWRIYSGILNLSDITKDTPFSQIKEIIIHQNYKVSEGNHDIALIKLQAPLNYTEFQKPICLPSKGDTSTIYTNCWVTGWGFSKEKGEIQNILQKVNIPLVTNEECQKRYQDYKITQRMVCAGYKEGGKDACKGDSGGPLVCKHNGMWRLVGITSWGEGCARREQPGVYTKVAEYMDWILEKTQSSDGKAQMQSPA
T2 sequence (P03952 20-390 partner limits assumed): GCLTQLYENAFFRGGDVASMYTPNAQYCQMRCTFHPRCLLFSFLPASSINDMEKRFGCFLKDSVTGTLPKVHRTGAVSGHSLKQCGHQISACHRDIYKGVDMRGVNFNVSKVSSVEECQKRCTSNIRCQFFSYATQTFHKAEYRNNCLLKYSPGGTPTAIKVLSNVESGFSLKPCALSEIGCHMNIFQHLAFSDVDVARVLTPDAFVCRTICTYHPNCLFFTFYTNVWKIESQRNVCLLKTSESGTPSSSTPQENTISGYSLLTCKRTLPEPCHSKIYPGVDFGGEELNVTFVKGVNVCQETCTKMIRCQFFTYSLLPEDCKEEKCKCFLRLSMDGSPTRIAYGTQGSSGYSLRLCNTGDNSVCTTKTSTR

Ki (Factor XIa [1]): 61600 nM
Km (Factor XIa [1]): 12.4 µM
kcat (Factor XIa [1]): 0.86 s⁻¹
Molecule: 5Fam-KLTRAETV-K5Tamra (5FAM-KLTRAETV-{K(5-TAMRA)}) [fluorophore-quencher pair peptide substrate based on the Arg146 cleavage site of FXI, purchased from New England Peptide]

kcat (human plasma kallikrein [2]): 0.76 s⁻¹
Molecule: Cc1cc(=O)oc2cc(NC(=O)[C@H](CCCNC(=N)N)NC(=O)[C@@H]3CCCN3C(=O)CNC(=O)OCc3ccccc3)ccc12 [Z-Gly-Pro-Arg-AMC] (Cbz-Gly-Pro-Arg-{AMC})

IC50 (Factor XIa [3]; 30 min preincubation, 15 μM 5Fam-KLTRAETV-K5Tamra substrate, top compound concentration 100 nM, kinetic read): > 100 nM
Ki (Factor XIa [3]; same assay as Factor XIa IC50): > 50 nM
IC50 (human plasma kallikrein [4]): 802 nM
Molecule: NC(=O)c1ccc(NC(=O)[C@@H]2CC[C@H]3CCC(c4c(-n5cnnn5)ccc(Cl)c4F)=CC(=O)N32)cc1F [ID No. 20, (3S,9aR)-N-(4-carbamoyl-3-fluorophenyl)-7-(3-chloro-2-fluoro-6-(1H-tetrazol-1-yl)phenyl)-5-oxo-2,3,5,8,9,9a-hexahydro-1H-pyrrolo[1,2-a]azepine-3-carboxamide]
